pIC50: −log10 of the molar value.

In test [1] the target is T1, TPR-MET Ba/F3 cells (Homo sapiens, UniProt P08581).
T1 construct: TPR-MET Ba/F3 cells were created by stably transducing the human TPR-MET gene into Ba/F3 cells using a retroviral system; fused on or other part: P12270 (Nucleoprotein TPR)
The test is described as follows: 96-well XTT cell survival assay (Ba/F3 cells). It counts as cell-based. Particulars: cells marked (BaF3), 72 hours; read-out: XTT Assay IC50 (BaF3). Here is the method:
TPR-MET Ba/F3 cells were created by stably transducing the human TPR-MET gene into Ba/F3 cells using a retroviral system. All cell lines were grown in RPMI-1640 supplemented with 1× penicillin/streptomycin and 10% fetal bovine (Invitrogen, Carlsbad, Calif.). The cells were maintained in a 5% CO2 humidified incubator at 37° C.
Compounds were tested in the following assays in duplicate.
96-well XTT assay (Ba/F3 cells): Cells were grown in growth media containing various concentrations of compounds (duplicates) on a 96-well plate for 72 hours at 37° C. The starting cell number was 5000-8000 cells per well and volume was 120 μl. At the end of the 72-hour incubation, 40 μl of XTT labeling mixture (50:1 solution of sodium 3′-[1-(phenylamino-carbonyl)-3,4-tetrazolium]-bis(4-methoxy-6-nitro) benzene sulfonic acid hydrate and Electron-coupling reagent: PMS (N-methyl dibenzopyrazine methyl sulfate) were added to each well of the plate. After an additional 2-6 hours of incubation at 37° C., the absorbance reading at 405 nm with background correction at 650 nm was measured with a spectrophotometer.

The target in test [2] is c-MET (Homo sapiens, UniProt P08581). The test is described as follows: MET luminescence-based enzyme assay (Kinase-Glo). It counts as biochemical. Here is the method: The subscript designates positive or negative controls. The Z′ score for a robust screening assay should be ≧0.50. The typical threshold=μ+−3*σ+. Any value that falls below the threshold was designated a “hit”.
MET Luminescence-Based Enzyme Assay
MET kinase (see below), Kinase-Glo™ (Promega Cat#V6712).
Negative controls contained 10 μM staurosporine.
Background: In Kinase-Glo more light means more ATP remaining.

Chain of c-MET (P08581 1078-1345 limits assumed): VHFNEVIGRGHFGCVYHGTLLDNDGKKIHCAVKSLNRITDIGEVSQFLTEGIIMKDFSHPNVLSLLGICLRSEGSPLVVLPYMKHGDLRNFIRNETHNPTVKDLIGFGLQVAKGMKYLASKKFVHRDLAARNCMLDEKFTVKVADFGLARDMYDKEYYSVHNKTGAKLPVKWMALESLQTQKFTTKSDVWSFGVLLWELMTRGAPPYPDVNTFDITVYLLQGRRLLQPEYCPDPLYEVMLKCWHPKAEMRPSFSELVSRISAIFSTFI
T1 sequence (P08581 whole entry, change not shown, the tested form may be a part): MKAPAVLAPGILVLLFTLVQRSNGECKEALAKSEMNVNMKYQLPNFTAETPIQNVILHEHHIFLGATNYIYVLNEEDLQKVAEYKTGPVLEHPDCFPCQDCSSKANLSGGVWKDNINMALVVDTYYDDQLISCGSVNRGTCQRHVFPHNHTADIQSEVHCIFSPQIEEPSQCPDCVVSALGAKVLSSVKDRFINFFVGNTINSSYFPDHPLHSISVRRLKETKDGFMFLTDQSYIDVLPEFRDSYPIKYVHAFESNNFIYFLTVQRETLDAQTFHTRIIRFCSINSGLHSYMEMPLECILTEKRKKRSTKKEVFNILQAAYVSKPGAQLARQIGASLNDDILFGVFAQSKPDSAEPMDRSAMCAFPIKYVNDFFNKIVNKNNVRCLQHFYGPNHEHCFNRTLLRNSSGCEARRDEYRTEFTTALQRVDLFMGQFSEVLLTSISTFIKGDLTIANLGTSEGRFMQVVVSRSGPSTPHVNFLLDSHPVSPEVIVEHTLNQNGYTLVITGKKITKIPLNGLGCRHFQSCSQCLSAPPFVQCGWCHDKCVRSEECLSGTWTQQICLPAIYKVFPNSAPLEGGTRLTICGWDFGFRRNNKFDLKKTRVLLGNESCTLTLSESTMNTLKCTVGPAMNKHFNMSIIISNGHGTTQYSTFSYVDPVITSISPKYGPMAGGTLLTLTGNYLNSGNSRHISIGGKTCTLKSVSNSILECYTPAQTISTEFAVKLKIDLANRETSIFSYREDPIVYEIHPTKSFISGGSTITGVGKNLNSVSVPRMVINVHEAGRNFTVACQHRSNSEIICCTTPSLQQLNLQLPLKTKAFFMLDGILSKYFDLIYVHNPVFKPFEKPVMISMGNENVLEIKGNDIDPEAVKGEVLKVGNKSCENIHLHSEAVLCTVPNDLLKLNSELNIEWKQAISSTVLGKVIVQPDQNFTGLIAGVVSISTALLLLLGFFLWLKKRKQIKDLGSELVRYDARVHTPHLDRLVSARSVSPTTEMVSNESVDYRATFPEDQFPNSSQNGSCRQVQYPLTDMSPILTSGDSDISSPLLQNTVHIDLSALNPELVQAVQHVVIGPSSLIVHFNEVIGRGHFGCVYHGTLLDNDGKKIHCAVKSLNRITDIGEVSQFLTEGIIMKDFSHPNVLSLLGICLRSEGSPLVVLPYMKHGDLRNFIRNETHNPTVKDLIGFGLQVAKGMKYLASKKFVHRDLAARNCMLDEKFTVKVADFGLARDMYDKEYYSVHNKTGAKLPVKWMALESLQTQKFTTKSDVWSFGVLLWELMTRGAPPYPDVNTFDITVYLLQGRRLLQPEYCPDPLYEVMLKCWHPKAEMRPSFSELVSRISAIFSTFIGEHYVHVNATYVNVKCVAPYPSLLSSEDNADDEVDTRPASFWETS

Broadly, the pIC50 is −log10 of the IC50, conventionally taken in molar units. Low readings indicate a large IC50, high ones a small IC50. In the case of `CNC(=O)c1ccc(-c2ccc3nnc(Sc4ccc5ncn(C)c5c4)n3n2)cc1F` [Compound 19, 2-Fluoro-N-methyl-4-[3-(3-methyl-3H-benzoimidazol-5-ylsulfanyl)-[1,2,4]triazolo[4,3-b]pyridazin-6-yl]-benzamide], the GI50 in test [1] was at most 100 nM. For the same compound, in test [2], the pIC50 was above 7.00.

As to `N#Cc1cccc(-c2ccc3nnc(Sc4cc5cccnc5cc4F)n3n2)c1` [Compound 23, 3-[3-(7-Fluoro-quinolin-6-ylsulfanyl)-[1,2,4]triazolo[4,3-b]pyridazin-6-yl]-benzonitrile], in test [1], the GI50 is at most 100 nM. The pIC50 in test [2] is above 7.00.

As for `CNC(=O)c1ccc(-c2ccc3nnc(Sc4cc5scnc5cc4F)n3n2)cc1F` [Compound 20], in test [1], the GI50 is at most 100 nM. Further, in test [2], the pIC50 is above 7.00.

For the compound `N#Cc1cccc(-c2ccc3nnc(Sc4ccc5ncccc5c4)n3n2)c1` [Compound 21, 3-[3-(Quinolin-6-ylsulfanyl)-[1,2,4]triazolo[4,3-b]pyridazin-6-yl]-benzonitrile], the GI50 in test [1] was at most 100 nM. The pIC50 in test [2] was above 7.00.

With `N#Cc1cccc(-c2ccc3nnc(Sc4ccc5ncsc5c4)n3n2)c1` [Compound 22, 3-[3-(Benzothiazol-6-ylsulfanyl)-[1,2,4]triazolo[4,3-b]pyridazin-6-yl]-benzonitrile], the GI50 in test [1] was in the range of 100 to 1000 nM. This compound gave a pIC50 in test [2] above 7.00.

The values above are taken from patent publication US8507489B2, “Bicyclic triazoles as protein kinase modulators” (SGX Pharmaceuticals, Inc., priority 2006, dated 2013).
